“And” between values parts separate entries of the source, which are not always exact repeats. Equal entries are not always repeated. Where two headings read alike, the source gives them in different places.
What was measured:
FFX Sprague Dawley rats = experiment: Hippocampal long-term potentiation in vivo; design: species or system rat; details: 0.3 mg/kg
Experimental: AZD0328 reversed a deficit in hippocampal long-term potentiation (LTP) in FFX Sprague Dawley rats (Table 2). […] 0.3 mg/kg of AZD0328 was ineffective in this test.

[1] = Single dose PK/TK, rhesus monkey; type: in vivo; details: for half-life: read-out: T½ (converted); for Vd: read-out: Vss
Experimental: Pharmacokinetic studies in rats and monkeys were used to estimate the plasma concentrations associated with doses at which AZD0328 improved cognitive performance in these species. For example, in rhesus monkeys, two studies were conducted to determine the pharmacokinetic profile of AZD0328 after administration of 0.048 and 1.7 mg per kg AZD0328. […] We thus estimated the peak plasma concentrations in monkeys that received AZD0328 at 0.00048-0.016 mg per kg to be 0.6-18 nM. Similar studies and calculations in rats, when extended to mice, led us to estimate plasma concentrations at 0.001-0.1 mg per kg body weight to be 0.29-100 nM in these species.
(§1) This section provides a summary of the pharmacokinetic and metabolism properties of AZD0328 derived from in vivo studies. […] The derived PK/TK parameters from these studies are presented in Table 4 for single dose studies (DMR4, 0619LR, 20030191PCR, DMO16, DMB10, DMW12, 50190, 0190DD and 03.330/1), and are presented in Table 5 multiple dose PK/TK studies (DMR4, 0612AR, DMB15, 50190, 0190DD and 0295AD).

[2] = target: T1, hERG-encoded potassium channel (Homo sapiens, UniProt Q12809); experiment: hERG patch clamp; type: cell-based; details: HEK cells, read-out: IC50, block of hERG tail current (estimated)
T1 construct: expressed in transfected cells; host or cells: HEK cells
Experimental: A study was performed to evaluate the effects of AZD0328 on the α-subunit of the voltage-dependent potassium channel encoded by the human ether-a-go-go-related gene (hERG), using the patch clamp technique (Table 3).

[3] = target: T2, rat recombinant α7 receptor (Rattus norvegicus, UniProt Q05941); experiment: Whole cell current, oocytes; type: cell-based; details: oocyte
T2 construct: expressed in transfected cells; host or cells: Xenopus oocytes
Excerpt: (§2) In membranes prepared either from cultured, human recombinant α7 receptor-expressing, human embryonic kidney cells α7-HEK) or from rat brain hippocampus, AZD0328 competed with binding of an iodinated form of the high-affinity, selective α7 receptor antagonist snake toxin, [^125I]-α-bungarotoxin (BTX) (Table 1). In Xenopus oocytes injected with human, recombinant α7 receptor mRNA, AZD0328 activates whole cell currents (Table 2). […] In acutely dissociated rat hippocampal interneurons, AZD0328 elicits rapidly activated, desensitizing whole-cell current (Table 1), consistent with the known properties of rat neuronal α7 receptors. […] AZD0328 modulates synaptic function, consistent with the well-known role of α7 receptors as heteroreceptor modulators of glutamatergic and GABAergic synaptic function.

[4] = target: T3, mouse recombinant α7 receptor (Mus musculus, UniProt P49582); experiment: Whole cell current, oocytes; type: cell-based; details: oocyte
T3 construct: expressed in transfected cells; host or cells: Xenopus oocytes
Excerpt: as §2

[5] = Multiple dose PK/TK, minipig; type: in vivo; details: capsules fasted; for AUC / Cmax / Tmax: both sexes, Gottingen, minipig, in vivo, po
Excerpt: as §1

α7 receptor [6] = target: T4, α7 receptor (Rattus norvegicus, UniProt Q05941); experiment: Pre-frontal cortex slice GABA sIPSC frequency; type: cell-based; details: rat PFC slice
Excerpt: as §2

muscarinic M5 receptor = muscarinic M5 receptor (Homo sapiens, UniProt P08912); experiment: Selectivity panel, radioligand binding; details: read-out: inhibition of specific radioligand binding
Experimental: (§3) Secondary effects of AZD0328 on targets other than the α7 nicotinic acetylcholine receptor (nAChR) were investigated in vitro. Selectivity against a broad panel of 129 receptors, ion channels, nuclear hormone receptors, transporters and enzymes was tested using radioligand binding assays (Report no. GPW003).

[7] = target: serotonergic 5-HT3 receptor (Homo sapiens, UniProt P46098); experiment: Selectivity panel, radioligand binding; details: read-out: inhibition of specific radioligand binding
Experimental: as §3

adrenergic α2B receptor = adrenergic α2B receptor (Homo sapiens, UniProt P18089); experiment: Selectivity panel, radioligand binding; details: read-out: inhibition of specific radioligand binding
Experimental: as §3

[8] = test system: central nicotinic receptors; experiment: Selectivity panel, radioligand binding; details: 10 μM
Experimental: as §3

muscarinic M3 receptor = muscarinic M3 receptor (Homo sapiens, UniProt P20309); experiment: Selectivity panel, radioligand binding; details: read-out: inhibition of specific radioligand binding
Experimental: as §3

[9] = target: T5, human recombinant 5-HT3A/B receptors (Homo sapiens, UniProt O95264+P46098); experiment: Functional assays at recombinant human receptors; type: biochemical; details: recombinant human receptors in vitro
T5 construct: expressed in transfected cells

Ames test = experiment: Ames test
Excerpt: The genotoxic potential of AZD0328 has been evaluated in the Ames test and in the Mouse lymphoma test. AZD0328 was not mutagenic in either of these tests.

α7 receptor [10] = target: T4, α7 receptor; experiment: Hippocampal slice GABA sIPSC frequency; type: cell-based; details: 5 μM
Excerpt: as §2

[11] = target: human recombinant α7 receptor (Homo sapiens, UniProt P36544); experiment: Whole cell current activation kinetics, α7-HEK cells; type: cell-based; design: expressed in transfected cells; host or cells: Xenopus oocytes (mRNA injected)
[12] = both sexes, in vivo, rhesus monkey 2M+2F, 03.330/1, iv 1.15 mg/kg (5.32 μmol/kg)
[13] = both sexes, in vivo, rhesus monkey 2M+2F, 03.330/1, iv 3.85 mg/kg (17.8 μmol/kg)
[14] = both sexes, plasma, im, rhesus monkey 2F+2M, A7AGBU1006, intramuscular 1.7 mg/kg (8 μmol/kg)
[15] = both sexes, plasma, rhesus monkey 2M+2F, 03.330/1, iv 0.385 mg/kg (1.78 μmol/kg)
[16] = male, plasma, im, rhesus monkey 3M, A7AGBU1010, intramuscular 0.048 mg/kg (0.22 μmol/kg)
[17] = 73.1 mg/kg, minipig 2F+2M, 50190, 73.1 mg/kg (338 μmol/kg), day 1
[18] = 73.1 mg/kg, minipig 2F+2M, 50190, 73.1 mg/kg (338 μmol/kg), day 7
[19] = 422 mg/kg, minipig 2F+2M, 50190, 422 mg/kg (1951 μmol/kg), day 7

T4 sequence (Q05941 23-502): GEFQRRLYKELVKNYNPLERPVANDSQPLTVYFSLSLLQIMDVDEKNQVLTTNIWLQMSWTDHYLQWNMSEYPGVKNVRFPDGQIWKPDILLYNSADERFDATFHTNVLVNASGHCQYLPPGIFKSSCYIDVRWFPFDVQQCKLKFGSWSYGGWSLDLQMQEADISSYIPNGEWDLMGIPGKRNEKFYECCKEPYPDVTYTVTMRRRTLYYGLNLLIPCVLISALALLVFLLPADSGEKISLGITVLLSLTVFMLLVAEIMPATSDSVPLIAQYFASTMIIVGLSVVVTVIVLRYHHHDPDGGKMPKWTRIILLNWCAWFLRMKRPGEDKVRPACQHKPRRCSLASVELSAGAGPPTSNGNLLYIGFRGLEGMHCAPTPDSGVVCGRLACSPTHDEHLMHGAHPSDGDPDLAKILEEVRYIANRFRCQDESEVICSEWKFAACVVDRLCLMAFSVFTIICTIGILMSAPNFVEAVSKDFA
T2 sequence (Q05941 23-502): as above
T3 sequence (P49582 23-502): as the sequence (Q05941 23-502) above, with A402T counted along it
muscarinic M3 receptor, sequence (P20309 whole entry): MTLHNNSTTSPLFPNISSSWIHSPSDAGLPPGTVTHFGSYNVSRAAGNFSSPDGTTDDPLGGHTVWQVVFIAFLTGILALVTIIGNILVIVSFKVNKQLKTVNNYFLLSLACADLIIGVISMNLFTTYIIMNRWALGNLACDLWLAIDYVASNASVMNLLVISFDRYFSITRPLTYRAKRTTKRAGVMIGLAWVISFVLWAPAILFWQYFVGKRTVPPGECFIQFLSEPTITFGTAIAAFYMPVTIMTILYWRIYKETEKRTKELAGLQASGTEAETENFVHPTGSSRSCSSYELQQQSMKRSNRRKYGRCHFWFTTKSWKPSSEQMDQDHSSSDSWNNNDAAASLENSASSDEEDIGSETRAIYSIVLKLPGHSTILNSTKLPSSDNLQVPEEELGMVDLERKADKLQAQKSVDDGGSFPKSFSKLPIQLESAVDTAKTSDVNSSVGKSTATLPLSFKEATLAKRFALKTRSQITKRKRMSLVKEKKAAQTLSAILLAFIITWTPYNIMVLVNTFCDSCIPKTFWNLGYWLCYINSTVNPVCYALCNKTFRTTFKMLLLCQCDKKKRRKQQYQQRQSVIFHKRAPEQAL
T1 sequence (Q12809 whole entry): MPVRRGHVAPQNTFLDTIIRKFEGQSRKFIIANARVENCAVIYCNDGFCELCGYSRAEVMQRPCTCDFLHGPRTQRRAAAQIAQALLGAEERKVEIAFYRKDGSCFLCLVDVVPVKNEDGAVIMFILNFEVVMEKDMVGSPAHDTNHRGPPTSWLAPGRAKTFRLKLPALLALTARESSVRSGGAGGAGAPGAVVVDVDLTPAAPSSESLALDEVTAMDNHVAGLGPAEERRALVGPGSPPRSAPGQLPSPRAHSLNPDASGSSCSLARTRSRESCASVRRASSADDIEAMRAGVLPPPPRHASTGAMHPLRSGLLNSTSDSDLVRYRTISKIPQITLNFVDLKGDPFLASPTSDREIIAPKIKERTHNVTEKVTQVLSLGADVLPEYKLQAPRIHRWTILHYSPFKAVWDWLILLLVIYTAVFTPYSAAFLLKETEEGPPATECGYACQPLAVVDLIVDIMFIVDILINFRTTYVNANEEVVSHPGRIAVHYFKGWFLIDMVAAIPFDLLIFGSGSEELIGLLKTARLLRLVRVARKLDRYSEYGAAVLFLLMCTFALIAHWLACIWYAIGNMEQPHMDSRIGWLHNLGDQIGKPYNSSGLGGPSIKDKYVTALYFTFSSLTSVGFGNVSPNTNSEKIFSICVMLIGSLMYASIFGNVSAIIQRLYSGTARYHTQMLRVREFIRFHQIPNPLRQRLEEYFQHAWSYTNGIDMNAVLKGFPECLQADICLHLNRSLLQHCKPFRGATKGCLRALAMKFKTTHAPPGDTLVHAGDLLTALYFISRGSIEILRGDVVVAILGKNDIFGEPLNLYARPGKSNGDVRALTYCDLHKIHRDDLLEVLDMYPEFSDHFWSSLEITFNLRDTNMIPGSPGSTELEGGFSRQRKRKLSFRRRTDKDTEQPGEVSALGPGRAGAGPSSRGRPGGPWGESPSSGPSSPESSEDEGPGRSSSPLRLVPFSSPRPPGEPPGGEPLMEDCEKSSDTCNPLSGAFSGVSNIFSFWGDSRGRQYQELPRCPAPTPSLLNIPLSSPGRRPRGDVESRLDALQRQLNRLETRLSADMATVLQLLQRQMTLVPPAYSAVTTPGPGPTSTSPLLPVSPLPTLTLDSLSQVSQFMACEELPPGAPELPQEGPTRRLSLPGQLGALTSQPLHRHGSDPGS
serotonergic 5-HT3 receptor, sequence (P46098 24-478): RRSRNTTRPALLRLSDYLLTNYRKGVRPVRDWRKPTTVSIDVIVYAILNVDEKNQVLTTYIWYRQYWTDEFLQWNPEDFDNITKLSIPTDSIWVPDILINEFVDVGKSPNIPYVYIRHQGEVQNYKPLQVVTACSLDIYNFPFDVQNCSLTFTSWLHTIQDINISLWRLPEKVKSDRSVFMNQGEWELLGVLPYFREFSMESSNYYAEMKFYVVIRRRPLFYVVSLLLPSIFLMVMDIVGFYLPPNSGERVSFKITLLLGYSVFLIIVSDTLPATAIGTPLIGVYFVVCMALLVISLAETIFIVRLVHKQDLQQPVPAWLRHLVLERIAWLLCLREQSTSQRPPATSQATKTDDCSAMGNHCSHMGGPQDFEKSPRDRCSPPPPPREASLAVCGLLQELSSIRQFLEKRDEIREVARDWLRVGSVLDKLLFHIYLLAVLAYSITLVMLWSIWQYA
T5 sequence (P46098 24-478): as above
T5 sequence (O95264 22-441): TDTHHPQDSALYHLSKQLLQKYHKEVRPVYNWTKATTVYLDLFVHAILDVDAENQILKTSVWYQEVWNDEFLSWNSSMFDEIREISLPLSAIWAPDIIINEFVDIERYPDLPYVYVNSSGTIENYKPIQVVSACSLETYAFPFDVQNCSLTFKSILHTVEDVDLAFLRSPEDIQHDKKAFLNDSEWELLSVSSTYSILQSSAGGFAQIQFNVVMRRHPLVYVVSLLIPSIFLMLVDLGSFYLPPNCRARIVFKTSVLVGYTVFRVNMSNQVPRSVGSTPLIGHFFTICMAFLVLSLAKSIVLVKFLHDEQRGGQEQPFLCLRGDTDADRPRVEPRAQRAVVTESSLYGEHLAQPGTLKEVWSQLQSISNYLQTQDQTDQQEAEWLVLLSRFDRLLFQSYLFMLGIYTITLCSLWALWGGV
muscarinic M5 receptor, sequence (P08912 whole entry): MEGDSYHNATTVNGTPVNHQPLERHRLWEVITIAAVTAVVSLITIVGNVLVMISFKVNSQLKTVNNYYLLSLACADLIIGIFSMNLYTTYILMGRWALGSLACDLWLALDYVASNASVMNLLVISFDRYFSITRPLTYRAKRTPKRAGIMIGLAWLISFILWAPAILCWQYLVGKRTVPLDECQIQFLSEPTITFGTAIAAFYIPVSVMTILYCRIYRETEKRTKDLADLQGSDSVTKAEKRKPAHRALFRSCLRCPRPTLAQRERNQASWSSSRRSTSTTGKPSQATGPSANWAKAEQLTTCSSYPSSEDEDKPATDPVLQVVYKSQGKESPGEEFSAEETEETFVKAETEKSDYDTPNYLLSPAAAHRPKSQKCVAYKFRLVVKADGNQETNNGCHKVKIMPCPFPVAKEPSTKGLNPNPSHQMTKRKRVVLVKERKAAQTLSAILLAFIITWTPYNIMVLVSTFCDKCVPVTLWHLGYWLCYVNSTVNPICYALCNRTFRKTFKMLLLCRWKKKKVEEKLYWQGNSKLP
adrenergic α2B receptor, sequence (P18089 whole entry): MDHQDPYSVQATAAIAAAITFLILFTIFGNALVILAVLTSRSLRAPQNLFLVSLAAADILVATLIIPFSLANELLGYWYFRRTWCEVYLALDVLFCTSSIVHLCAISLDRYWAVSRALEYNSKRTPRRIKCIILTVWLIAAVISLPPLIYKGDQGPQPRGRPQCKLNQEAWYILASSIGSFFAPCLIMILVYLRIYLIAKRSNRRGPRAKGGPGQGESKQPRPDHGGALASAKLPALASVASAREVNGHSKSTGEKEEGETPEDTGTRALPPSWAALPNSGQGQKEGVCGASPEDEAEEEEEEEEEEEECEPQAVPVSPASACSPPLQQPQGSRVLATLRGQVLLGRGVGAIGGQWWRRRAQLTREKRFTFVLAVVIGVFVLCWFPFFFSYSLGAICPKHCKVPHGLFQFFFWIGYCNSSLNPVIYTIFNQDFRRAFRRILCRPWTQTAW
human recombinant α7 receptor, sequence (P36544 23-502): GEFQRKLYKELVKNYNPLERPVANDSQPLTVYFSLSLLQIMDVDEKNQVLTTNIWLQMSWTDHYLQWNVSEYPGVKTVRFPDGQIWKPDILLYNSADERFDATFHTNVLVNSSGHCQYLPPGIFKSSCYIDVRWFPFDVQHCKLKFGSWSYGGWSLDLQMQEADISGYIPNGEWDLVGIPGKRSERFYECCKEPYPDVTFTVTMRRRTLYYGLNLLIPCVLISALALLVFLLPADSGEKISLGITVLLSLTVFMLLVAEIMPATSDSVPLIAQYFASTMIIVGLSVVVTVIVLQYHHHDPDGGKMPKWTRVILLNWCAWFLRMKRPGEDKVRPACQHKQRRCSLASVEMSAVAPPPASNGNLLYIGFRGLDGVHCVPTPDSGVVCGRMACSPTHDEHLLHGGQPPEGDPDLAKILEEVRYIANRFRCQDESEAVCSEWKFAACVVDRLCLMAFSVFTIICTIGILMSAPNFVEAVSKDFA

Structure (SMILES): c1cnc2c(c1)C[C@@]1(CN3CCC1CC3)O2 [AZD0328, (R)-Spiro[1-azabicyclo[2.2.2]octane-3,2′(3′H)-furo[2,3-b]pyridine]]
- effect on hippocampal LTP (FFX Sprague Dawley rats): ineffective
- half-life ([1]; both sexes, in vivo, rhesus monkey 2M+2F, 03.330/1, iv 0.385 mg/kg (1.78 μmol/kg)): 1.76 ± 0.43 h
- clearance [1, 12]: 14.2 mL/min/kg
- half-life [1, 12]: 1.96 ± 0.63 h
- Vd [1, 12]: 2.52 ± 1.64 L/kg
- clearance [1, 13]: 14.5 mL/min/kg
- half-life [1, 13]: 2.14 ± 0.39 h
- Vd [1, 13]: 2.85 ± 1.6 L/kg
- AUC [1, 14]: 634 ± 81 ng·h/mL
- Tmax [1, 14]: 0.25 h
- Cmax ([1]; both sexes, plasma, im, rhesus monkey 2F+2M, A7AGBU1006, intramuscular 1.7 mg/kg (8 μmol/kg), read-out: Cmax): 430 ng/mL and 1.99 µM
- half-life [1, 14]: 0.97 ± 0.12 h
- clearance [1, 15]: 21 mL/min/kg
- Vd [1, 15]: 3.29 ± 2.32 L/kg
- Tmax [1, 16]: 0.25 h
- Cmax ([1]; male, plasma, im, rhesus monkey 3M, A7AGBU1010, intramuscular 0.048 mg/kg (0.22 μmol/kg), read-out: Cmax): 16.1 ng/mL and 74.6 nM
- half-life [1, 16]: 0.85 ± 0.23 h
- estimated peak plasma concentrations ([1]; monkeys, 0.00048-0.016 mg per kg): 0.6 to 18 nM
- Cmax ([1]; rhesus monkey, plasma, intramuscular, 0.016 mg/kg, rhesus monkeys, read-out: Cmax at NOAEL for behavioral side effects): 18 nM
- estimated free plasma Cmax ([1]; rhesus monkeys, 0.016 mg/kg (NOAEL)): 18 nM
- IC50 [2]: 32000 nM
- EC50 ([3]; rat recombinant α7): 1100 nM
- Emax ([3]; rat recombinant α7, 10 μM, read-out: Maximum response, whole cell current): 87%
- EC50 ([4]; mouse recombinant α7): 1000 nM
- Emax ([4]; mouse recombinant α7, 10 μM, read-out: Maximum response, whole cell current): 83%
- AUC [5, 17]: 3140 ng·h/mL and 14.5 µM·h
- Cmax [5, 17]: 379 ng/mL and 1.75 µM
- Tmax [5, 17]: 2 to 6 h
- AUC [5, 18]: 4610 ng·h/mL and 21.3 µM·h
- Cmax [5, 18]: 794 ng/mL and 3.67 µM
- Tmax [5, 18]: 0.5 to 4 h
- AUC [5, 19]: 25700 ng·h/mL to 27700 ng·h/mL and 119 µM·h to 128 µM·h
- Cmax [5, 19]: 1420 ng/mL to 1570 ng/mL and 6.57 µM to 7.24 µM
- Tmax [5, 19]: 12 h
- AUC/dose ([5]; minipig 2F+2M, 50190, 73.1 mg/kg (338 μmol/kg), day 1): 0.0429 ± 0.0275
- AUC/dose ([5]; minipig 2F+2M, 50190, 73.1 mg/kg (338 μmol/kg), day 7): 0.0630 ± 0.0288
- AUC/dose ([5]; minipig 2F+2M, 50190, 422 mg/kg (1951 μmol/kg), day 7): 0.0610-0.0656
- EC50 (α7 receptor [6]): 700 nM
- Emax (α7 receptor [6]; read-out: Maximum response, GABA sIPSC frequency): 330%
- inhibition at 10 µM (muscarinic M5 receptor): > 50%
- inhibition at 10 µM [7]: > 50%
- inhibition at 10 µM (adrenergic α2B receptor): > 50%
- inhibition of specific radioligand binding [8]: > 50%
- inhibition at 10 µM (muscarinic M3 receptor): > 50%
- functional potency at α7 versus 5-HT3A/B receptors [9]: equipotent
- mutagenicity (Ames test): not mutagenic
- GABA sIPSC frequency (α7 receptor [10]): 251 % baseline
- 10-90% rise time, whole cell current [11]: 1.5 ms
